Reference: patent publication US6498139B1, “Remedies for diseases caused by insulin resistance” (Daiichi Pharmaceutical Co., Ltd., priority 1997, dated 2002)

Test system: 14-3-3 protein binding to IRS-1
Assay: Amount of 14-3-3 protein binding to IRS-1 in HepG2 hepatoma cells overexpressing IRS-1
Assay type: cell-based
Conditions: IRS-1 overexpressed by adenovirus expression system

| Compound | amount of 14-3-3 protein binding to IRS-1 |
| --- | --- |
| insulin | not changed |
| C=C1[C@@H](O)[C@@H]2O[C@]3(CC[C@H](/C=C/[C@@H](C)[C@@H]4CC(C)=C[C@@]5(O[C@H](C[C@@](C)(O)C(=O)O)CC[C@H]5O)O4)O3)CC[C@H]2O[C@@H]1[C@@H](O)C[C@H](C)[C@H]1O[C@@]2(CCCCO2)CC[C@H]1C [okadaic acid] | significantly increased |
